Source: PMC6941952, “A homogeneous bioluminescent immunoassay to probe cellular signaling pathway regulation” (Communications Biology, 2020)
“And” between values parts separate entries of the source, which are not always exact repeats. Equal values may be shown once.

What was measured:
[1] = system: total NF-κB p65; experiment: NanoBiT cell-based immunoassay, total p65 in MCF-7 cells; design: species or system human; conditions: for level of p65: MCF-7 cells, TNFα 50 ng per ml 10 min, IKK16 10 µM 1 h; for Total p65, Average: background subtracted, average of replicates; for Total p65, Raw data / Total p65, Subtract reagent background: single replicates
Procedure: (§1) Prior to NanoBiT Cell-Based Immunoassay, 50,000 cells were seeded in 160 µl of complete growth media per well of a 96-well plate and incubated overnight. The cells were checked under microscope and it was determined that 50,000 cells per well in 96-well plate is under 90% confluency for all cells tested. If necessary, the cell culture media were replaced with serum-free media after the cells were stably adherent on the plate and incubated overnight. To treat cells with activators or inhibitors, medium was changed to 30 µl of medium containing inhibitors. If activation of a specific pathway is needed, the cells were stimulated with 10 µl of medium containing activators. To lyse the cells, 10 µl of lysis buffer containing 0.1% digitonin diluted in 1X immunoassay buffer with protease and phosphatase inhibitors was added and the plates were mixed vigorously for 20 min. Then, 50 µl of an antibody mix containing two primary antibodies against the target protein and NanoBiT detecting antibodies (0.3 µl each per well), diluted in 1X immunoassay buffer was added to the lysates. The plates were incubated at 23 °C for 90 min, followed by the addition of 25 µl of Nano-Glo® reagent consisting of Nano-Glo® Luciferase Assay Substrate mixed with 1X immunoassay buffer. Luminescence was measured using a plate-reading luminometer.
(§2) Single dose or dose response inhibitor treatments were performed prior to activation of the pathways as follows. For IκBα, the cells were treated in 30 µl medium with IKK16 or MG132 for 60 min before the addition of 10 µl of DMEM containing appropriate concentration of TNFα. To measure phosphorylation of AKT or STAT3, the corresponding NanoBiT immunoassays were developed with MCF-7 or A431 cells, respectively, according the same scheme used to develop the IκBα assay using the primary antibodies for AKT and STAT3 described in the reagents section. For the AKT assay, MCF-7 cells were incubated overnight in phenol-red free DMEM medium (Gibco #21063-029) without serum. Treatment with LY294002 was performed in 30 µl medium and cells were incubated for 60 min before the addition of 1 µM Insulin. To measure STAT3 phosphorylation, A431 cells were incubated overnight in DMEM medium without serum. […] After addition of the stimulators, the cells were incubated for additional times as follows. IκBα phosphorylation and degradation analyses required both time courses and single time points as described in figures. […] The NanoBiT immunoassay protocol was followed as described above.
(§3) All 96-well assay plates were read using a GloMax® 96 Microplate Luminometer from Promega. The instrument was set to 0.5 s integration time. In order to obtain net change of signal, the reagent background values (signal from the well containing all reagent except primary antibodies) were subtracted from the sample values. To plot and analyze the data, Microsoft Excel and GraphPad Prism® Software were used. IC50 values were determined by using a nonlinear regression fit to a sigmoidal dose response (variable slope).

[2] = system: total IκBα; experiment: NanoBiT cell-based immunoassay, total IκBα in human primary mammary epithelial cells; conditions: for Total IkB Average: background subtracted; for Total IkB Raw data / Total IkB Subtract reagent background: listed as TNF
Procedure: All cell lines used are from ATCC. […] Human Primary Mammary Epithelial Cells (#H-6035), Human Breast Tumor Epithelial Cells (#HC-6035), Complete Human Epithelial Cell Medium (#H6621), and Gelatin-Based Coating Solution (#H6950) were purchased from Cell Biologics. The cells were cultured according to the manufacturer’s procedure. All cells were grown at 37 °C in a 5% CO2 humidified incubator and passaged before reaching 80% cell confluency. Prior to each experiment, cells were counted by combining 30 µl of cell suspension with 30 µl of trypan blue. After gentle pipetting up and down to mix the cells and the dye, the cell number was determined using Bio-Rad TC 20 cell counter.
as §1, §2, §3

How did the “level of p65” value [1] turn out when O=C(c1ccc(Nc2nccc(-c3cc4ccccc4s3)n2)cc1)N1CCC(N2CCCC2)CC1 [IKK16] was run?
The value was “not affected”.

What about the “Total p65, Average” value ([1]; TNF + Ikk16) of the same compound?
Its value is 726760.

And the “Total p65, Raw data” value ([1]; TNF + Ikk16)?
The value was 756500 and 718200 and 763300.

What about the “Total p65, Subtract reagent background” value ([1]; TNF + Ikk16) of the same compound?
The value was 744060 and 737260 and 698960.

What about the “Total p65, Average” value ([1]; substance alone) of the same compound?
The value was 788717.

And the “Total p65, Raw data” value ([1]; substance alone)?
The value was 811900 and 763300 and 846900.

What about the “Total p65, Subtract reagent background” value ([1]; substance alone) of the same compound?
The value was 828250 and 793250 and 744650.

TNFα was tested. Which “level of p65” value [1] did it give?
The value was “not affected”.

And the “Total p65, Average” value ([1]; substance alone)?
The value was 887990.

And the “Total p65, Raw data” value ([1]; substance alone, listed as TNF)?
Its value is 913100 and 869100 and 947500.

And the “Total p65, Subtract reagent background” value ([1]; substance alone, listed as TNF)?
Its value is 925590 and 891190 and 847190.

And the “Total IkB Average” value ([2]; TNF 2 min)?
The value was 18292.

And the “Total IkB Raw data” value ([2]; TNF 2 min)?
Its value is 29190 and 27950 and 27350.

And the “Total IkB Subtract reagent background” value ([2]; TNF 2 min)?
Its value is 19319 and 18079 and 17479.

And the “Total IkB Average” value ([2]; TNF 4 min)?
Its value is 16139.

What about the “Total IkB Raw data” value ([2]; TNF 4 min) of the same compound?
Its value is 26330 and 26760 and 24940.

And the “Total IkB Subtract reagent background” value ([2]; TNF 4 min)?
Its value is 16459 and 16889 and 15069.

What about the “Total IkB Average” value ([2]; TNF 6 min) of the same compound?
The value was 13185.

What about the “Total IkB Raw data” value ([2]; TNF 6 min) of the same compound?
Its value is 23190 and 23370 and 22610.

And the “Total IkB Subtract reagent background” value ([2]; TNF 6 min)?
The value was 13319 and 13499 and 12739.

What about the “Total IkB Average” value ([2]; TNF 8 min) of the same compound?
The value was 9145.

And the “Total IkB Raw data” value ([2]; TNF 8 min)?
The value was 19430 and 18940 and 18680.

What about the “Total IkB Subtract reagent background” value ([2]; TNF 8 min) of the same compound?
The value was 9559 and 9069 and 8809.

And the “Total IkB Average” value ([2]; TNF 10 min)?
Its value is 6539.

What about the “Total IkB Raw data” value ([2]; TNF 10 min) of the same compound?
Its value is 16860 and 16350 and 16020.

What about the “Total IkB Subtract reagent background” value ([2]; TNF 10 min) of the same compound?
The value was 6989 and 6479 and 6149.

And the “Total IkB Average” value ([2]; TNF 12 min)?
The value was 4795.

And the “Total IkB Raw data” value ([2]; TNF 12 min)?
Its value is 14910 and 14630 and 14460.

And the “Total IkB Subtract reagent background” value ([2]; TNF 12 min)?
Its value is 5039 and 4759 and 4589.

What about the “Total IkB Average” value ([2]; TNF 15 min) of the same compound?
Its value is 3099.

What about the “Total IkB Raw data” value ([2]; TNF 15 min) of the same compound?
Its value is 13120 and 12980 and 12810.

And the “Total IkB Subtract reagent background” value ([2]; TNF 15 min)?
The value was 3249 and 3109 and 2939.

And the “Total IkB Average” value ([2]; TNF 30 min)?
Its value is 3035.

What about the “Total IkB Raw data” value ([2]; TNF 30 min) of the same compound?
The value was 13030 and 12940 and 12750.

What about the “Total IkB Subtract reagent background” value ([2]; TNF 30 min) of the same compound?
The value was 3159 and 3069 and 2879.

And the “Total IkB Average” value ([2]; TNF 45 min)?
The value was 5225.

What about the “Total IkB Raw data” value ([2]; TNF 45 min) of the same compound?
Its value is 15670 and 15120 and 14500.

What about the “Total IkB Subtract reagent background” value ([2]; TNF 45 min) of the same compound?
The value was 5799 and 5249 and 4629.

And the “Total IkB Average” value ([2]; TNF 60 min)?
The value was 7062.

And the “Total IkB Raw data” value ([2]; TNF 60 min)?
Its value is 16790 and 17170 and 16840.

What about the “Total IkB Subtract reagent background” value ([2]; TNF 60 min) of the same compound?
Its value is 6919 and 7299 and 6969.
